Experimental data reported in patent US20250382332A1, “NOVEL ALPHA-FACTOR BASED PEPTIDES WITH ANTIFUNGAL ACTIVITY” (INVAIO SCIENCES, INC., priority 2024, published 2025).
Peptide text beside a SMILES is read from it.

Tested on: Botrytis cinerea (B05.10)
Assay: Resazurin antifungal assay of 180 alpha-factor peptide variants towards Botrytis (Example 2)
Assay type: cell-based
Conditions: % inhibition of fungal growth, Botrytis conidia, resazurin; for Inhibition at 10 μM: peptide 10 μM; for Inhibition at 20 μM: peptide 20 μM; for Inhibition at 50 μM: peptide 50 μM; for Inhibition at 100 μM: peptide 100 μM
Description: The antifungal activity of 180 alpha-factor peptide variants towards Botrytis was tested. Experimental design:
Peptides corresponding to SEQ ID NO: 1-180 were chemically synthesized using the solid-phase synthesis method and resuspended in water to a stock solution of 1 mM. The stock solution was aliquoted in cryovials and stored at −80° C.
The Botrytis cinerea culture (B05.10) isolate was acquired from the Centraalbureau voor Schimmelcultures, the Netherlands. The Botrytis fungus was propagated on 0.5% V8 agar plates (200 ml V8 Juice, 3 g CaCO3, 15 g agar, 800-ml millipore water) at 20° C., in a 12 h photoperiod for 21 days.
Fungal conidia were harvested by scraping a Botrytis plate flooded with 1 ml water with 0.1% Tween 80 solution. Conidia were then collected in a 50 ml falcon tube by passing the solution through a 40 micron filter. The solution was then centrifuged at 6000 rpm and the pellet was resuspended in 1 ml of 20% glycerol. The conidia concentration of the resulting solution was counted using a hemocytometer. The stock was diluted to […] using 20% glycerol and frozen in 100 μl aliquots in −80° C. until further use.
Peptides were tested for activity against Botrytis, using the resazurin assay. For this, fungal stock conidia was first diluted to 5000 conidia/well. 50 μl of the spore suspension was added to each well of the sterile 96-well clear bottom testing plate and mixed with 50 μl of peptide solutions to a final concentration of 100, 50, 20, 15 and 10 μM. The plate was incubated for 24 h at 20° C. After 24 h, 10 μl of resazurin dye was added to the microtiter plate and incubated again for […]. Fluorescence was measured at 570/620 nm after 4 h of incubation with resazurin.
Growth inhibition was calculated by subtracting the fluorescence values of conidia only wells from sample wells and depicted as % inhibition of fungal growth. Four technical replicates were used for all treatments.

SMILES	Inhibition at 10 μM [%]	Inhibition at 20 μM [%]	Inhibition at 50 μM [%]	Inhibition at 100 μM [%]
CSCC[C@H](NC(=O)[C@@H]1CCCN1C(=O)[C@H](CCC(N)=O)NC(=O)CNC(=O)[C@@H]1CCCN1C(=O)[C@H](CCCCN)NC(=O)[C@H](Cc1ccccc1)NC(=O)[C@H](CO)NC(=O)[C@H](CC(C)C)NC(=O)[C@H](Cc1c[nH]c2ccccc12)NC(=O)[C@H](Cc1c[nH]cn1)NC(=O)[C@@H](N)CCCCN)C(=O)N[C@@H](Cc1ccc(O)cc1)C(=O)O [compound 20] (H-KHWLSFKPGQPMY-OH; N-terminus and C-terminus assumed)	<90	<90	100	100
CSCC[C@H](NC(=O)[C@H](CC(C)C)NC(=O)[C@H](CCC(N)=O)NC(=O)[C@@H](NC(=O)[C@H](Cc1c[nH]c2ccccc12)NC(=O)[C@H](Cc1c[nH]cn1)NC(=O)[C@@H](N)CCCCN)C(C)C)C(=O)N[C@@H](CCCCN)C(=O)NCC(=O)N[C@@H](CCC(N)=O)C(=O)N1CCC[C@H]1C(=O)N[C@@H](CCSC)C(=O)N[C@@H](Cc1ccc(O)cc1)C(=O)O [compound 21] (H-KHWVQLMKGQPMY-OH; N-terminus and C-terminus assumed)	<90	<90	100	100
CSCC[C@H](NC(=O)[C@H](CCCCN)NC(=O)[C@H](Cc1ccccc1)NC(=O)[C@H](CCC(N)=O)NC(=O)[C@@H](NC(=O)[C@H](CC(C)C)NC(=O)[C@H](Cc1c[nH]cn1)NC(=O)[C@@H](N)CCCCN)C(C)C)C(=O)NCC(=O)N[C@@H](CCC(N)=O)C(=O)N1CCC[C@H]1C(=O)N[C@@H](CCSC)C(=O)N[C@@H](Cc1ccc(O)cc1)C(=O)O [compound 22] (H-KHLVQFKMGQPMY-OH; N-terminus and C-terminus assumed)	<90	<90	100	100
CSCC[C@H](NC(=O)CNC(=O)[C@H](CCC(N)=O)NC(=O)CNC(=O)[C@H](CC(N)=O)NC(=O)[C@H](CCCCN)NC(=O)[C@H](CC(C)C)NC(=O)[C@H](C)NC(=O)[C@@H](NC(=O)[C@H](Cc1c[nH]c2ccccc12)NC(=O)[C@H](Cc1c[nH]cn1)NC(=O)[C@@H](N)Cc1c[nH]c2ccccc12)C(C)C)C(=O)N[C@@H](Cc1ccc(O)cc1)C(=O)O [compound 23] (H-WHWVALKNGQGMY-OH; N-terminus and C-terminus assumed)	<90	<90	98.68	100
CSCC[C@H](NC(=O)[C@@H]1CCCN1C(=O)[C@H](CCC(N)=O)NC(=O)CNC(=O)[C@@H]1CCCN1C(=O)[C@H](CCCCN)NC(=O)[C@H](Cc1ccccc1)NC(=O)[C@H](CC(N)=O)NC(=O)[C@H](CC(C)C)NC(=O)[C@H](Cc1ccc(O)cc1)NC(=O)[C@H](Cc1c[nH]cn1)NC(=O)[C@@H](N)CCCCN)C(=O)N[C@@H](Cc1ccc(O)cc1)C(=O)O [compound 24] (H-KHYLNFKPGQPMY-OH; N-terminus and C-terminus assumed)	<90	<90	96.95	100
CSCC[C@H](NC(=O)[C@@H]1CCCN1C(=O)[C@H](CCC(N)=O)NC(=O)CNC(=O)[C@@H](NC(=O)[C@H](CCCCN)NC(=O)[C@H](Cc1ccccc1)NC(=O)[C@H](CCC(N)=O)NC(=O)[C@H](CC(C)C)NC(=O)[C@H](CC(C)C)NC(=O)[C@H](Cc1c[nH]cn1)NC(=O)[C@@H](N)Cc1c[nH]c2ccccc12)C(C)C)C(=O)N[C@@H](Cc1ccc(O)cc1)C(=O)O [compound 25] (H-WHLLQFKVGQPMY-OH; N-terminus and C-terminus assumed)	<90	<90	92.63	100
CC[C@H](C)[C@H](NC(=O)[C@H](Cc1c[nH]c2ccccc12)NC(=O)[C@H](Cc1c[nH]cn1)NC(=O)[C@@H](N)Cc1c[nH]c2ccccc12)C(=O)N[C@@H](CCC(N)=O)C(=O)N[C@@H](Cc1ccccc1)C(=O)N[C@@H](CCCCN)C(=O)N1CCC[C@H]1C(=O)NCC(=O)N[C@@H](CCC(N)=O)C(=O)N[C@@H](CO)C(=O)N[C@@H](CCSC)C(=O)N[C@@H](Cc1ccc(O)cc1)C(=O)O [compound 26] (H-WHWIQFKPGQSMY-OH; N-terminus and C-terminus assumed)	<90	<90	91.39	100
CSCC[C@H](NC(=O)[C@@H]1CCCN1C(=O)[C@H](CCC(N)=O)NC(=O)CNC(=O)[C@H](CO)NC(=O)[C@H](CCCCN)NC(=O)[C@H](CC(C)C)NC(=O)[C@H](CC(N)=O)NC(=O)[C@H](CC(C)C)NC(=O)[C@H](Cc1ccccc1)NC(=O)[C@H](Cc1c[nH]cn1)NC(=O)[C@@H](N)CCCCN)C(=O)N[C@@H](Cc1ccc(O)cc1)C(=O)O [compound 27] (H-KHFLNLKSGQPMY-OH; N-terminus and C-terminus assumed)	–	–	90.58	100
CSCC[C@H](NC(=O)[C@@H]1CCCN1C(=O)[C@H](CCC(N)=O)NC(=O)CNC(=O)[C@@H]1CCCN1C(=O)[C@H](CCCCN)NC(=O)[C@H](CC(C)C)NC(=O)[C@H](C)NC(=O)[C@H](CC(C)C)NC(=O)[C@H](Cc1ccccc1)NC(=O)[C@H](Cc1c[nH]cn1)NC(=O)[C@@H](N)CCCCN)C(=O)N[C@@H](Cc1ccc(O)cc1)C(=O)O [compound 28] (H-KHFLALKPGQPMY-OH; N-terminus and C-terminus assumed)	–	–	<90	100
CSCC[C@H](NC(=O)[C@@H]1CCCN1C(=O)[C@H](CCC(N)=O)NC(=O)CNC(=O)[C@@H]1CCCN1C(=O)[C@H](CCCCN)NC(=O)[C@H](Cc1ccccc1)NC(=O)[C@H](CCCNC(=N)N)NC(=O)[C@H](CC(C)C)NC(=O)[C@H](CC(=O)O)NC(=O)[C@H](Cc1c[nH]cn1)NC(=O)[C@@H](N)CCCCN)C(=O)N[C@@H](Cc1ccc(O)cc1)C(=O)O [compound 29] (H-KHDLRFKPGQPMY-OH; N-terminus and C-terminus assumed)	–	–	<90	97.77
CC[C@H](C)[C@H](NC(=O)[C@@H](NC(=O)[C@H](CC(C)C)NC(=O)[C@H](Cc1c[nH]c2ccccc12)NC(=O)[C@H](Cc1c[nH]cn1)NC(=O)[C@@H]1CCCN1)[C@@H](C)O)C(=O)N[C@@H](CCCCN)C(=O)N1CCC[C@H]1C(=O)NCC(=O)N[C@@H](CCC(N)=O)C(=O)N1CCC[C@H]1C(=O)N[C@@H](CCSC)C(=O)N[C@@H](Cc1ccc(O)cc1)C(=O)O [compound 30] (H-PHWLTIKPGQPMY-OH; N-terminus and C-terminus assumed)	–	–	<90	<90
CC[C@H](C)[C@H](NC(=O)[C@H](Cc1c[nH]c2ccccc12)NC(=O)[C@H](CCC(=O)O)NC(=O)[C@@H](N)CCCCN)C(=O)N[C@@H](CCC(N)=O)C(=O)N[C@@H](CC(C)C)C(=O)N[C@@H](CCCCN)C(=O)N[C@@H](CC(C)C)C(=O)NCC(=O)N[C@@H](CCC(N)=O)C(=O)N1CCC[C@H]1C(=O)N[C@@H](CCSC)C(=O)N[C@@H](Cc1ccc(O)cc1)C(=O)O [compound 31] (H-KEWIQLKLGQPMY-OH; N-terminus and C-terminus assumed)	–	–	<90	<90
CSCC[C@H](NC(=O)CNC(=O)[C@H](CCC(N)=O)NC(=O)CNC(=O)[C@@H]1CCCN1C(=O)[C@H](CCCCN)NC(=O)[C@H](CC(C)C)NC(=O)[C@H](CO)NC(=O)[C@H](CC(C)C)NC(=O)[C@H](Cc1c[nH]c2ccccc12)NC(=O)[C@H](CO)NC(=O)[C@@H](N)CCCCN)C(=O)N[C@@H](Cc1ccc(O)cc1)C(=O)O [compound 32] (H-KSWLSLKPGQGMY-OH; N-terminus and C-terminus assumed)	–	–	<90	<90
CSCC[C@H](NC(=O)[C@@H]1CCCN1C(=O)[C@H](CCC(=O)O)NC(=O)CNC(=O)[C@@H]1CCCN1C(=O)[C@H](CCCCN)NC(=O)[C@H](Cc1ccccc1)NC(=O)[C@H](CCC(N)=O)NC(=O)CNC(=O)[C@H](Cc1c[nH]c2ccccc12)NC(=O)[C@H](CCCNC(=N)N)NC(=O)[C@@H](N)Cc1c[nH]c2ccccc12)C(=O)N[C@@H](Cc1ccc(O)cc1)C(=O)O [compound 33] (H-WRWGQFKPGEPMY-OH; N-terminus and C-terminus assumed)	–	–	<90	<90
CSCC[C@H](NC(=O)CNC(=O)[C@H](CCC(N)=O)NC(=O)CNC(=O)[C@@H]1CCCN1C(=O)[C@H](Cc1ccccc1)NC(=O)[C@H](Cc1ccccc1)NC(=O)[C@H](CO)NC(=O)[C@H](CC(C)C)NC(=O)[C@H](Cc1c[nH]c2ccccc12)NC(=O)[C@H](Cc1c[nH]cn1)NC(=O)[C@@H]1CCCN1)C(=O)N[C@@H](Cc1ccc(O)cc1)C(=O)O [compound 34] (H-PHWLSFFPGQGMY-OH; N-terminus and C-terminus assumed)	–	–	<90	<90
